Test results taken from article doi:10.1101/2020.02.26.964882v3 (biorxiv, 2020).

Molecular target: COVID-19 virus M^pro (Severe acute respiratory syndrome coronavirus 2, UniProt P0DTD1)
Assay: enzymatic inhibition assay
Format: biochemical

SMILES: CN(C)CCCSc1ccccc1NC(=O)/C=C/c1ccccc1 [cinanserin]
- IC50: 125 µM
